These results are taken from patent US20140316217A1, “SYSTEM AND METHOD FOR MONITORING ANESTHESIA AND SEDATION USING MEASURES OF BRAIN COHERENCE AND SYNCHRONY” (priority 2013, published 2014).

The test system of experiment [1] is volunteers. Conditions: for frequency range of increased power in the spectrogram compared to baseline: sedation, visually evident. From the text:
(§1) The power spectral density, also referred to as the power spectrum or spectrum, quantifies the frequency distribution of energy or power within a signal. The spectrogram is a time-varying version of the spectrum. […] In these spectrograms, frequencies are arranged along the y-axis, and time along the x-axis, and power is indicated by color on a decibel (dB) scale. […] Spectra and spectrograms were computed using the multitaper method, implemented in the Chronux toolbox (http://chronux.orq). The multitaper method was chosen specifically because it allows the spectral resolution to be set precisely, which is desirable in observing many anesthesia-related phenomena. Moreover, for a particular choice of spectral resolution, the multitaper method offers lower bias and lower variance than traditional nonparametric spectral estimation methods.
(§2) Group-level spectrograms were computed by taking the median across volunteers. Spectra were also calculated for selected EEG epochs. The resulting spectra were then averaged for all epochs, and 95% confidence intervals were computed via taper-based jackknife techniques. The spectral analysis parameters included window length T=4 s with 0 s overlap, time-bandwidth product TW=3, number of tapers K=5, and spectral resolution 2 W of 1.5 Hz. Peak power, and its frequency, was estimated for the dex-spindle, travelling peak, and frontal alpha oscillations for each individual subject. Averages across subjects were performed to obtain the group-level peak power and frequency for these oscillations.
(§3) To compare spectral and coherence estimates between groups, jackknife-based methods were used, namely the two-group test for spectra (TGTS), and the two-group test for coherence (TGTC), as implemented by the Chronux toolbox (http://www.chronukorg). This method accounts for the underlying spectral resolution of the spectral and coherence estimates, and considers differences to be significant if they are present for contiguous frequencies over a range greater than the spectral resolution 2 W. Specifically, for frequencies f>2 W, the null hypothesis was rejected only if the test statistic exceeded the significance threshold over a contiguous frequency range ≧2 W. For frequencies 0≦f≦2 W, to account for the properties of multitaper spectral estimates at frequencies close to zero, the null hypothesis was rejected only if the test statistic exceeded the significance threshold over a contiguous frequency range from 0 to max(f,W)≦2 W. A significance threshold of p<0.05 was selected for within group comparisons and p<0.001 for between group comparisons, applying a Bonferonni correction for multiple comparisons where appropriate.
Volunteers were instructed to close their eyes throughout the study to avoid eye-blink artifacts in the EEG. Volunteers were presented with auditory stimuli during the study and asked to respond by button presses to assess the level of conscious behavior. The stimuli consisted of the volunteer's name presented every two minutes. Button-press stimuli were recorded using a custom-built computer mouse with straps fitted to hold the first and second fingers in place over the mouse buttons. The mouse was also lightly strapped to the subject's hand using tape and an arterial line board to ensure that responses could be recorded accurately.
We applied an anti-aliasing filter and down-sampled the EEG data to 250 Hz before analysis. EEG signals were re-montaged to a nearest-neighbor Laplacian reference, using distances along the scalp surface to weigh neighboring electrode contributions. First, 2-minute EEG segments were selected from all subjects during the awake, eyes closed baseline. Eye closure facilitates distinguishing between normal awake, eyes-closed occipital alpha oscillations and the frontal alpha oscillations associated with anesthesia induced altered arousal. EEG data segments were selected based on the behavioral response.

Experiment [2] concerns volunteers. Conditions: for frequency range of increase in coherence on the coherogram compared to baseline: sedation.
Another experiment relates to patient. The settings on record: anesthetized with ketamine alone or in combination with other anesthetic agents; cited from earlier work.
For experiment [3], the system named is dopaminergic arousal pathway. As to the kind of experiment: Methylphenidate-induced emergence from isoflurane general anesthesia; plethysmography and blood gas experiments. It counts as in vivo. From the text:
MPH can be used to restore consciousness, induce electroencephalogram changes consistent with arousal, and increase respiratory drive. The behavioral and respiratory effects induced by methylphenidate can be inhibited by droperidol, supporting the evidence that methylphenidate induces arousal by activating a dopaminergic arousal pathway.

Experiment [4] relates to patients. Nature of the experiment: Frontal EEG coherence analysis during sevoflurane and propofol general anesthesia (patients, Sedline monitor). It counts as in vivo, human.
Experiment [5] deals with patients. Nature of the experiment: Frontal EEG spectral analysis during sevoflurane and propofol general anesthesia (patients, Sedline monitor). It counts as in vivo, human. Conditions: mean±std.
Text: as §1, §2, §3

The mark [6] stands for this setting: dexmedetomidine sedation, mean±std.
Where [7] appears, read: propofol-induced unconsciousness, dexmedetomidine sedation.
Where [8] appears, read: dexmedetomidine sedation, propofol-induced unconsciousness.
Where [9] appears, read: propofol-induced unconsciousness.
[10] abbreviates: general anesthesia, P<0.001 TGTC.

“And” between values parts separate entries of the source, which are not always exact repeats. Identical values can stand only once.

For `Cc1cccc([C@H](C)c2cnc[nH]2)c1C` [dexmedetomidine], the “frequency range in which EEG power was lower than baseline” value in the experiment on volunteers [1] (dexmedetomidine sedation, P<0.05 TGTS) is recorded as 17.4-40 Hz. Besides, in the experiment with volunteers [1] (setting [6]), the “dex-spindle oscillation peak frequency (EEG power)” value was 13.1 Hz and ~13 Hz; the “dex-spindle oscillation peak power” value was −10.2 dB. Moreover, in the experiment on volunteers [1] (dexmedetomidine sedation, summary), the “frequency at which maximum power and coherence of spindles occur” value was 13-14 Hz. In the experiment with volunteers [1] (setting [7]), this compound had a slow oscillations power of 1.8 dB. Besides, in the experiment on volunteers [1], the “frequency range of increased power in the spectrogram compared to baseline” value is reported as 2-15 Hz. For the same compound, in the experiment on volunteers [2] (dexmedetomidine sedation), the “coherence peak frequency (dex-spindle)” value turned out to be 13.3 Hz and the “peak coherence (dex-spindle)” value is 0.78±0.08. Moreover, in the experiment on volunteers [2] (setting [8]), the “frequency range of decrease in coherence on the coherogram compared to baseline” value is 0.1-1 Hz. For the same compound, the “frequency range of increase in coherence on the coherogram compared to baseline” value with volunteers [2] is on record as 1-15 Hz.

As for `CNC1(c2ccccc2Cl)CCCCC1=O` (centres unmarked) [ketamine], the BIS values entry in the experiment on patient is “high BIS values”.

For `COC(=O)C(c1ccccc1)C1CCCCN1` (centres unmarked) [methylphenidate], the “emergence from general anesthesia” value in experiment [3] (isoflurane general anesthesia) is “actively induces emergence from isoflurane general anesthesia”. Besides, the minute ventilation result in experiment [3] (plethysmography and blood gas experiments) was “increases minute ventilation”.

Take `CC(C)c1cccc(C(C)C)c1O` [propofol]: in the experiment with volunteers [1] (setting [9]), the “frontal alpha oscillations power” value worked out at 2.5 dB and the “size of slow oscillations compared with dexmedetomidine sedation” value is reported as “almost an order of magnitude larger”. The compound further yielded a slow oscillations power in the experiment with volunteers [1] (setting [7]) of 19.2 dB. Moreover, in the experiment with volunteers [1], the “frequency range of increased power in the spectrogram compared to baseline” value was 1-25 Hz. In addition, the “alpha oscillation coherence peak frequency” value with patients [4] (general anesthesia) was found to be 10.2 Hz. For the same compound, the “frequency range in which propofol exhibited increased EEG coherence versus sevoflurane” value with patients [4] (setting [10]) was 11.7-19.5 Hz. Also, the “alpha oscillation peak coherence” value in the experiment with patients [4] (propofol general anesthesia) stood at 0.71 dB. For the same compound, in the experiment with patients [5], the “alpha oscillation peak frequency (EEG power)” value was 10.3 Hz and the “alpha oscillation peak power” value worked out at 2.1 dB. In the experiment on volunteers [2] (P<0.0005 TGTC), the “frequency range in which coherence was higher during propofol-induced unconsciousness than dexmedetomidine sedation” value was 9.5-11.7 Hz; the “frequency ranges in which coherence was larger during propofol-induced sedation than dexmedetomidine sedation” value was 19.8-26.4 Hz and 26.9-29.3 Hz. For the same compound, the “frequency range of decrease in coherence on the coherogram compared to baseline” value in the experiment on volunteers [2] (setting [8]) is recorded as 0.1-1 Hz. The “frequency range of decreased slow oscillation coherence versus baseline” value in the experiment on volunteers [2] (propofol peak max (unconsciousness), P<0.025 TGTC) is 0.1-1.7 Hz. In addition, in the experiment with volunteers [2] (propofol sedation), the “coherence peak frequency (traveling-peak)” value is 16.1 Hz and the “peak coherence (traveling-peak)” value is 0.69±0.05. Further, in the experiment with volunteers [2] (setting [9]), the “alpha oscillation peak coherence” value was found to be 0.85±0.05 and the “centre of the narrow band of alpha oscillation coherence” value was approximately 10 Hz. Moreover, in the experiment on volunteers [2] (propofol-induced unconsciousness, P<0.025 TGTC), the “frequency range of significant increase in coherence versus baseline” value was 4-15.9 Hz. The “frequency range of increase in coherence on the coherogram compared to baseline” value with volunteers [2] is 1-25 Hz.

`FCOC(C(F)(F)F)C(F)(F)F` [sevoflurane]: in the experiment with patients [4] (general anesthesia), the “alpha oscillation coherence peak frequency” value is on record as 9.8 Hz, the “theta coherence peak frequency” value came out at 4.9 Hz and the theta peak coherence worked out at 0.58±0.1. For the same compound, in the experiment on patients [4] (setting [10]), the “frequency range in which sevoflurane exhibited increased EEG coherence versus propofol” value is given as 3.41-10.7 Hz. Besides, the “frequency at which maximum power and coherence of coherent alpha oscillations occur” value in the experiment with patients [4] (general anesthesia, summary) is 10-12 Hz. Besides, the “frequency of coherent theta oscillations” value with patients [4] (sevoflurane anesthesia) is reported as approximately 5 Hz. In addition, the “alpha oscillation peak coherence” value with patients [4] (sevoflurane general anesthesia) worked out at 0.73±0.1. In the experiment on patients [5], the “alpha oscillation peak frequency (EEG power)” value worked out at 9.2 Hz and the “alpha oscillation peak power” value amounted to 4.3 dB.
